# Test results reported in ChEMBL document CHEMBL3769343, “Spiromastilactones: A new class of influenza virus inhibitors from deep-sea fungus” (Eur J Med Chem, 2016).
# Assays:
# Influenza B virus = test: Antiviral activity against influenza B virus B/SZ/155 infected in dog MDCK cells assessed as inhibition of virus induced cytopathic effect after 40 hrs by Cell-Titer-Glo assay; assay type: functional, organism-based; conditions: B/SZ/155, MDCK
# [1] = Cytotoxicity against MDCK cells after 40 hrs by Celltiter-Glo assay; assay type: cell-based, Canis lupus familiaris; conditions: dog
# Influenza A virus = test: Antiviral activity against Influenza A virus A/WSN/1933 (H1N1) infected in MDCK cells assessed as protection against virus induced cytopathic effect after 40 hrs by Celltiter-Glo assay; assay type: functional, organism-based
# [2] = Inhibition of Influenza A virus A/WSN/33 (H1N1) HA1 protein by surface plasmon resonance assay; design: species or system Influenza A virus (A/WSN/1933(H1N1))
# [3] = tested on: Influenza A virus (A/WSN/1933(H1N1)); test: (§1) Binding affinity to Influenza A virus A/WSN/33 (H1N1) HA1 protein by surface plasmon resonance assay
# [4] = as §1; design: species or system Influenza A virus (A/WSN/1933(H1N1))
# [5] = tested on: Influenza A virus (A/WSN/1933(H1N1)); test: Binding affinity to Influenza A virus A/WSN/33 (H1N1) HA1 protein assessed as decrease in protein affinity to sialic acid receptor at 10 uM by surface plasmon resonance assay
# [6] = Binding affinity to Influenza A virus A/WSN/33 (H1N1) HA1 protein assessed as decrease in protein affinity to sialic acid receptor by measuring dissociation constant by surface plasmon resonance assay (reference value: 0.001473/Ms); design: species or system Influenza A virus (A/WSN/1933(H1N1))
# [7] = tested on: Influenza A virus (A/WSN/1933(H1N1)); test: Binding affinity to Influenza A virus A/WSN/33 (H1N1) HA1 protein assessed as decrease in protein affinity to sialic acid receptor by measuring association constant by surface plasmon resonance assay (reference value: 20810/s)
# [8] = Binding affinity to Influenza A virus A/WSN/33 (H1N1) HA1 protein assessed as decrease in protein affinity to sialic acid receptor by surface plasmon resonance assay (reference value: 70 nM); design: species or system Influenza A virus (A/WSN/1933(H1N1))
# [9] = tested on: Influenza A virus (A/WSN/1933(H1N1)); test: Binding affinity to Influenza A virus A/WSN/33 (H1N1) HA1 protein assessed as decrease in protein affinity to sialic acid receptor at 1.25 uM by surface plasmon resonance assay
# [10] = tested on: Influenza A virus (A/WSN/1933(H1N1)); test: Binding affinity to Influenza A virus A/WSN/33 (H1N1) HA1 protein assessed as decrease in protein affinity to sialic acid receptor at 5 uM by surface plasmon resonance assay
# [11] = tested on: Influenza A virus (A/WSN/1933(H1N1)); test: Binding affinity to Influenza A virus A/WSN/33 (H1N1) HA1 protein assessed as decrease in protein affinity to sialic acid receptor at 20 uM by surface plasmon resonance assay
# [12] = tested on: Influenza A virus (A/WSN/1933(H1N1)); test: Binding affinity to Influenza A virus A/WSN/33 (H1N1) HA1 protein assessed as decrease in protein affinity to sialic acid receptor at 2.5 uM by surface plasmon resonance assay
# [13] = tested on: Influenza A virus (A/WSN/1933(H1N1)); test: Binding affinity to Influenza A virus A/WSN/33 (H1N1) HA1 protein assessed as decrease in protein affinity to sialic acid receptor at 0.625 uM by surface plasmon resonance assay
SMILES,CC50 at 40 h [1],IC50 (Influenza A virus),IC50 [2],Ka [3],further results
CCOC(=O)C1=C[C@@H](OC(CC)CC)[C@H](NC(C)=O)[C@@H](N)C1 [OSELTAMIVIR],> 100 µM,10 µM,–,–,EC50 (Influenza B virus): > 83.2 µM
CCCc1c(Cl)c(O)cc(O)c1Oc1c(Cl)c(O)c(Cl)c2c1C(=O)O[C@@H]2CC,> 50 µM,27.6 µM,–,–,–
CCCc1cc(O)cc(O)c1Oc1c(Cl)c(O)c(Cl)c2c1C(=O)O[C@@H]2CC,> 100 µM,> 100 µM,–,–,–
CCCc1c(Cl)c(OC)c(Cl)c(OC)c1Oc1c(Cl)c(O)c(Cl)c2c1C(=O)O[C@@H]2CC,> 50 µM,> 50 µM,–,–,–
CCCc1cc(O)c(Cl)c(OC)c1Oc1c(Cl)c(O)c(Cl)c2c1C(=O)O[C@@H]2CC,> 100 µM,11.4 µM,11.4 µM,0.77 ×10⁴ /Ms,Kd [4]: 55 µM
CCCc1c(Cl)c(OC)c(Cl)c(O)c1Oc1c(Cl)c(O)c(Cl)c2c1C(=O)O[C@@H]2CC,> 50 µM,> 50 µM,–,–,–
CCCc1cc(O)c(Cl)c(O)c1Oc1c(Cl)c(O)c(Cl)c2c1C(=O)O[C@@H]2CC,> 100 µM,30.7 µM,30.7 µM,0.67 ×10⁴ /Ms,–
CCCc1cc(O)cc(OC)c1Oc1c(Cl)c(O)c(Cl)c2c1C(=O)O[C@@H]2CC,> 100 µM,74.9 µM,74.9 µM,0.46 ×10⁴ /Ms,Activity [5]: 55.1 RU; Kd [6]: 0.0007964 M⁻¹ s⁻¹; Ka [7]: 3560 s⁻¹; Kd [8]: 0.224 µM; Activity [9]: 7 RU; Activity [10]: 27.1 RU; Activity [11]: 114 RU; Activity [12]: 13 RU; Activity [13]: 3.4 RU
NC12CC3CC(CC(C3)C1)C2 [AMANTADINE],> 100 µM,13 µM,–,–,EC50 (Influenza B virus): 144 µM
